Values quoted from earlier work, collected in patent US20140356424A1, “COMPOSITION FOR TREATMENT OR REDUCTION OF SYMPTOMS RELATED TO PREMENSTRUAL SYNDROME (PMS), PREMENSTRUAL DISPHORIC DISORDER (PMDD), PREMENOPAUSE, MENOPAUSE OR FEMALE HORMONAL DISORDERS, IN A PHARMACEUTICAL COMPOSITION CONTAINING SAID FORM, AND PROCESS FOR PRODUCING SAID PHARMACEUTICAL FORM AND USE …” (EMS S.A., priority 2013, published 2014).

Columns and labels:
[1] = tested on: women with a diagnosis of PMS; details: calcium carbonate 1.0 g/day, after three months
[2] = tested on: premenstrual symptoms; details: daily supplement of 200 mg of magnesium (as MgO)

SMILES | complaints of headache, anxiety, agitation and irritability [1] | symptom of fatigue (questionnaire) ([1]; placebo 52.3%) | symptom of changes in appetite (questionnaire) ([1]; placebo 75%) | effect on severity of premenstrual symptoms [2]
O=C([O-])[O-].[Ca+2] [calcium carbonate] | significant changes were not observed | 36% | 52.7% | –
[O]=[Mg] [magnesium (as MgO), magnesium oxide] | – | – | – | reduced mild premenstrual symptoms
